Consider 30 compounds from patent US20110002855A1 (NEUROGEN CORPORATION, priority 2007, published 2011).

Bounds are passed on as bounds.

T1 sequence (Q9Y5N1 with tags, fused parts or gaps): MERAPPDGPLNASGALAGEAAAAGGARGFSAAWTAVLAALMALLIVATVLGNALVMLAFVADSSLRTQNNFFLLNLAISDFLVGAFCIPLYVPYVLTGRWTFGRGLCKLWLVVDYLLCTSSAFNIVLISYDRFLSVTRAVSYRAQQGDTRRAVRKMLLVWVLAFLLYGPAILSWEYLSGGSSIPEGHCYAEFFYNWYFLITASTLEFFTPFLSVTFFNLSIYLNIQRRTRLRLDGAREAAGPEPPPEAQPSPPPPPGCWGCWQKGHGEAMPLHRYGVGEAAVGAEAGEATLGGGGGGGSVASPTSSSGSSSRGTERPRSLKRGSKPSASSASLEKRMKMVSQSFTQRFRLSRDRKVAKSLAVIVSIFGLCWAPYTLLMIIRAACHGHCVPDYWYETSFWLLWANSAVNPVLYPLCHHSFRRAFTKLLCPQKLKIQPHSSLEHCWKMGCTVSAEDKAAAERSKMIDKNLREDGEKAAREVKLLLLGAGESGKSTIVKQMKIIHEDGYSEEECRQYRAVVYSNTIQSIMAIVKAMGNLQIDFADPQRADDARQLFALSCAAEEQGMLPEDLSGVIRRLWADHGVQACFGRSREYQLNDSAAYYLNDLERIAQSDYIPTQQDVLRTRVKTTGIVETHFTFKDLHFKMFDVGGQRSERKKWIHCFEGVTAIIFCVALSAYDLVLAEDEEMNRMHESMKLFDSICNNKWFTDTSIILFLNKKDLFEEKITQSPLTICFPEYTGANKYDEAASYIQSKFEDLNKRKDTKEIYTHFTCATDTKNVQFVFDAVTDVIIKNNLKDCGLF

This assay concerns the target T1, chimeric human H3 receptor (Homo sapiens, UniProt Q9Y5N1).
T1 construct: made in house; host or cells: Sf9 insect cells (baculovirus); P2 membrane preparation
Description: Chimeric human H3 receptor screening GTP binding assay at 4 μM (Example 8). It counts as biochemical. The conditions noted are these: test compound 4 μM, 1 μM histamine, P2 membranes of Sf9 cells; read-out: % (percent inhibition of agonist-induced GTP-gammaS binding to H3). Here is the method: This Example illustrates a representative screening assay for evaluating inhibition of histamine-stimulated GTP-gamma^35S binding. Such GTP binding activity can be used to identify H3 antagonists and inverse agonists. A compound analyzed in this assay is referred to herein as a “test compound,” and the initial identification of antagonists and inverse agonists is performed using a test compound concentration of 4 μM.
Four independent baculoviral stocks (one directing the expression of the chimeric human H3 receptor and three directing the expression of each of the three subunits of a heterotrimeric G-protein) are used to infect a culture of Sf9 cells as described above. P2 membranes are prepared as described above, and are resuspended by Dounce homogenization (tight pestle) in GTP binding assay buffer (50 mM Tris pH 7.4, 120 mM NaCl, 5 mM MgCl2, 2 mM EGTA, 1 mg/ml BSA, 0.2 mg/ml bacitracin, 0.02 mg/ml aprotinin, 0.01 mg/ml saponin, 10 μM GDP) and added to assay tubes at a concentration of 35 μg protein/reaction tube. Non-radiolabeled test compounds are added to separate reactions at a concentration of 4 μM along with 1 μM histamine (agonist). Reactions are initiated by the addition of 125 pM GTP-gamma^35S with a final assay volume of 0.20 ml.
After a 60-min incubation at room temperature, reactions are terminated by vacuum filtration over GF/C filters (pre-soaked in 50 mM Tris pH 7.4, 120 mM NaCl plus 0.1% BSA) followed by washing with ice-cold buffer (50 mM Tris pH 7.4, 120 mM NaCl). The amount of receptor-bound (and thereby membrane-bound) GTP-gamma^35S is determined by measuring the bound radioactivity, preferably by liquid scintillation spectrometry of the washed filters. Non-specific binding is determined using 10 uM GTP-gammaS and typically represents less than 5 percent of total binding. After subtraction of non-specific binding, data is expressed as percent inhibition of 1 μM histamine signal.
Neutral antagonists are those test compounds that reduce the histamine-stimulated GTP binding activity towards, but not below, baseline levels. In contrast, in the absence of added histamine, inverse agonists reduce the GTP binding activity of the receptor-containing membranes below baseline. Any test compound that elevates GTP binding activity above baseline in the absence of added histamine in this assay is defined as having agonist activity.
`CC1CCCCN1C1CCN(C(=O)CN2CCc3c([nH]c4ccccc34)C2)CC1` (stereo not drawn) [Compound 34, 2-[2-(2-Methyl-1,4′-bipiperidin-1′-yl)-2-oxoethyl]-2,3,4,9-tetrahydro-1H-beta-carboline]: the inhibition at 4 µM is not below 90%. As to `C=CCN1CCN(C(=O)CN2CCc3c([nH]c4ccccc34)C2)CC1` [Compound 35, 2-[2-(4-Allylpiperazin-1-yl)-2-oxoethyl]-2,3,4,9-tetrahydro-1H-beta-carboline], the inhibition at 4 µM was not below 90%. The same measure for `CC(C)N1CCCN(C(=O)CN2CCc3c([nH]c4ccccc34)C2)CC1` [Compound 36, 2-[2-(4-Isopropyl-1,4-diazepan-1-yl)-2-oxoethyl]-2,3,4,9-tetrahydro-1H-beta-carboline]: not below 90%; for `O=C(CN1CCc2c([nH]c3ccccc23)C1)N1CCCN(C2CCC2)CC1` [Compound 37, 2-[2-(4-Cyclobutyl-1,4-diazepan-1-yl)-2-oxoethyl]-2,3,4,9-tetrahydro-1H-beta-carboline]: not below 90%. For `CC1CCCC1N1CCN(C(=O)CN2CCc3c([nH]c4ccccc34)C2)CC1` (stereo not drawn) [Compound 38, 2-{2-[4-(2-Methylcyclopentyl)piperazin-l-yl]-2-oxoethyl}-2,3,4,9-tetrahydro-1H-beta-carboline] the value was not below 90%; for `O=C(CN1CCc2c([nH]c3ccccc23)C1)N1CCC(N2CCCC2)C1` (stereo not drawn) [Compound 39, 2-[2-(1,3′-Bipyrrolidin-1′-yl)-2-oxoethyl]-2,3,4,9-tetrahydro-1H-beta-carboline], not below 90%; for `O=C(CN1CCc2c([nH]c3ccccc23)C1)N1CCN(C2CCOCC2)CC1` [Compound 40, 2-{2-Oxo-2-[4-(tetrahydro-2H-pyran-4-yl)piperazin-1-yl]ethyl}-2,3,4,9-tetrahydro-1H-beta-carboline], not below 90%. For `O=C(CN1CCc2c([nH]c3ccccc23)C1)N1CCN(C2CCCCC2)CC1` [Compound 41, 2-[2-(4-Cyclohexylpiperazin-1-yl)-2-oxoethyl]-2,3,4,9-tetrahydro-1H-beta-carboline] the value was not below 90%; for `CCN1CCN(C(=O)CN2CCc3c([nH]c4ccccc34)C2)CC1` [Compound 42, 2-[2-(4-Ethylpiperazin-1-yl)-2-oxoethyl]-2,3,4,9-tetrahydro-1H-beta-carboline], not below 90%. With `CN1CCC(N(C)C(=O)CN2CCc3c([nH]c4ccccc34)C2)CC1` [Compound 43], the inhibition at 4 µM is not below 90%. For `CCCN1CCN(C(=O)CN2CCc3c([nH]c4ccccc34)C2)CC1` [Compound 44, 2-[2-(4-propylpiperazin-1-yl)-2-oxoethyl]-2,3,4,9-tetrahydro-1H-beta-carboline] the value was not below 90%; for `O=C(CN1CCc2c([nH]c3ccccc23)C1)N1CCN(C2CCCC2)CC1` [Compound 45, 2-[2-(4-Cyclopentylpiperazin-1-yl)-2-oxoethyl]-2,3,4,9-tetrahydro-1H-beta-carboline], not below 90%.

Consider `CCN(CC)C1CCN(C(=O)CN2CCc3c([nH]c4ccccc34)C2)CC1` [Compound 46, N,N-Diethyl-1-(1,3,4,9-tetrahydro-2H-beta-carbolin-2-ylacetyl)piperidin-4-amine], for which the inhibition at 4 µM was not below 90%.

With `CCCCN1CCCN(C(=O)CN2CCc3c([nH]c4ccccc34)C2)CC1` [Compound 47, 2-[2-(4-Butyl-1,4-diazepan-1-yl)-2-oxoethyl]-2,3,4,9-tetrahydro-1H-beta-carboline], the inhibition at 4 µM was not below 90%. For the compound `CCCCN1CCN(C(=O)CN2CCc3c([nH]c4ccccc34)C2)CC1` [Compound 48, 2-[2-(4-Butylpiperazin-1-yl)-2-oxoethyl]-2,3,4,9-tetrahydro-1H-beta-carboline], the inhibition at 4 µM is not below 90%. The same measure for `CCN(CC)C1CCN(C(=O)CN2CCc3c([nH]c4ccccc34)C2)C1` (stereo not drawn) [Compound 49, N,N-Diethyl-1-(1,3,4,9-tetrahydro-2H-beta-carbolin-2-ylacetyl)pyrrolidin-3-amine]: not below 90%.

In the case of `CC(C)CN1CCN(C(=O)CN2CCc3c([nH]c4ccccc34)C2)CC1` [Compound 50, 2-[2-(4-Isobutylpiperazin-1-yl)-2-oxoethyl]-2,3,4,9-tetrahydro-1H-beta-carboline], the inhibition at 4 µM was not below 90%.

For `CCCN(CC1CC1)C1CCN(C(=O)CN2CCc3c([nH]c4ccccc34)C2)CC1` [Compound 51, N-(Cyclopropylmethyl)-N-propyl-1-(1,3,4,9-tetrahydro-2H-beta-carbolin-2-ylacetyl)piperidin-4-amine], the inhibition at 4 µM was not below 90%. For `O=C(CN1CCc2c([nH]c3ccccc23)C1)N1CCC(N2CCCC2)CC1` [Compound 52, 2-[2-Oxo-2-(4-pyrrolidin-1-ylpiperidin-1-yl)ethyl]-2,3,4,9-tetrahydro-1H-beta-carboline] the value was not below 90%. The same measure for `O=C(CN1CCc2c([nH]c3ccccc23)C1)N1CCC(N2CCCCC2)CC1` [Compound 53, 2-[2-(1,4′-Bipiperidin-1′-yl)-2-oxoethyl]-2,3,4,9-tetrahydro-1H-beta-carboline]: not below 90%; for `COCCN(C(=O)CN1CCc2c([nH]c3ccccc23)C1)C1CCN(C)CC1` [Compound 54, N-(2-Methoxyethyl)-N-(1-methylpiperidin-4-yl)-2-(1,3,4,9-tetrahydro-2H-beta-carbolin-2-yl)acetamide]: not below 90%; for `O=C(CN1CCc2c([nH]c3ccccc23)C1)N1CCN(CCCN2CCCC2)CC1` [Compound 55, 2-{2-Oxo-2-[4-(3-pyrrolidin-1-ylpropyl)piperazin-1-yl]ethyl}-2,3,4,9-tetrahydro-1H-beta-carboline]: not below 90%. `O=C(CN1CCc2c([nH]c3ccccc23)C1)N1CCN(CCN2CCCCC2)CC1` [Compound 56, 2-{2-Oxo-2-[4-(2-piperidin-1-ylethyl)piperazin-1-yl]ethyl}-2,3,4,9-tetrahydro-1H-beta-carboline]: the inhibition at 4 µM was not below 90%. `O=C(CN1CCc2c([nH]c3ccccc23)C1)N1CCN(CCCN2CCCCC2)CC1` [Compound 57, 2-{2-Oxo-2-[4-(3-piperidin-1-ylpropyl)piperazin-1-yl]ethyl}-2,3,4,9-tetrahydro-1H-beta-carboline]: the inhibition at 4 µM was not below 90%. For `O=C(CN1CCc2c([nH]c3ccccc23)C1)N1CCN(CCN2CCCC2)CC1` [Compound 58, 2-{2-Oxo-2-[4-(2-pyrrolidin-1-ylethyl)piperazin-1-yl]ethyl}-2,3,4,9-tetrahydro-1H-beta-carboline] the value was not below 90%; for `CC(c1ccccc1)N1CCN(C(=O)CN2CCc3c([nH]c4ccccc34)C2)CC1` (stereo not drawn) [Compound 59, 2-{2-Oxo-2-[4-(1-phenylethyl)piperazin-1-yl]ethyl}-2,3,4,9-tetrahydro-1H-beta-carboline], not below 90%.

As to `CCCN(C(=O)CN1CCc2c([nH]c3ccccc23)C1)C1CCN(C)CC1` [Compound 60, N-(1-Methylpiperidin-4-yl)-N-propyl-2-(1,3,4,9-tetrahydro-2H-beta-carbolin-2-yl)acetamide], the inhibition at 4 µM is not below 90%. The same measure for `CN(C)CCCN(C(=O)CN1CCc2c([nH]c3ccccc23)C1)C1CCN(C)CC1` [Compound 61, N-[3-(Dimethylamino)propyl]-N-(1-methylpiperidin-4-yl)-2-(1,3,4,9-tetrahydro-2H-beta-carbolin-2-yl)acetamide]: not below 90%; for `CCN(C(=O)CN1CCc2c([nH]c3ccccc23)C1)C1CCN(C)CC1` [Compound 62, N-(1-Methylpiperidin-4-yl)-N-ethyl-2-(1,3,4,9-tetrahydro-2H-beta-carbolin-2-yl)acetamide]: not below 90%. The same measure for `CN(CCN1CCCC1)C(=O)CN1CCc2c([nH]c3ccccc23)C1` [Compound 63]: not below 90%.

What is called inhibition is the drop in the measured response relative to a control, in per cent.
